Measurements from US20130289070A1, “Use of Levocabastine for Modulating Generation of Pro-Inflammatory Cytokines” (Bausch & Lomb Incorporated, priority 2007, published 2013).

System: EoL-1 (human eosinophilic leukaemia cell line) cells
Test: TNF-α-induced cytokine release, differentiated and non-differentiated EoL-1 cells
Type: cell-based
Description: EoL-1 (human eosinophilic leukaemia cell line) cells (Saito et al., 1985; Mayumi, 1992) were maintained in RPMI-1640 medium with L-glutamine supplemented with 10% (v/v) FBS at 37° C. in a humidified atmosphere with 5% CO2. Where indicated, 24 h before the experiment 25 ng/mL PMA ((phorbol 12-myristate 13-acetate, purchased from Sigma Aldrich) was added to the medium to induce eosinophil granulation and differentiation (Ohtsu et al., 1993; Zimmermann et al., 2000). Half-million cells were aliquoted per point in a 24 well plate; each experiment was performed in triplicate and carried out in parallel with eosinophils differentiated and non differentiated with PMA (25 ng/mL, 24 h). Cells were suspended in low serum medium (RPMI-1640, 0.1% (v/v) FBS). TNF-α was used to induce cytokine secretion as previously described by Steube et al. (2000), and the net release was obtained by comparison to the basal (non-TNF-α treated). In the first experiment we evaluated the concentration and time relation between TNF-α stimulation and cytokine release. […] An aliquot of 150 μL of supernate was collected for cytokines' analysis. […] Differentiated and non-differentiated EoL-1 cells were exposed from 0.1 to 2.3 mM levocabastine ([…]Levocabastine 0.05% solution eye drops containing cyclodextrins, without benzalkonium chloride), and aliquots of the supernates were collected after 12 and 24 h. The content of cytokines at time zero was estimated by treating the cells with 400 nM calcimycin (A-23187), which is a cytolytic agent that frees all the mediators from the cytoplasmic compartment. In addition, for each experiment we tested the effect of the vehicle, which was added to the wells in a concentration equal to the maximum amount used for drug dilution. Samples (supernates 12 and 24 h) in triplicate were analyzed using Luminex 200™ (Luminex, Austin, Tex.) and Beadview software v1.0 (Upstate Cell Signaling Solutions, Temecula, Calif.). All data are presented as mean±SEM for the indicated number of experiments. Statistical significance was determined by Newman-Keuls test after ANOVA using GraphPad Prism (version 3.0; GraphPad Software Inc., San Diego, Calif., USA).

[1] = TNF-α challenge, text summary of Tables T-1, T-2
[2] = overall conclusion, in a concentration-dependent manner
[3] = overall conclusion, in a concentration-dependent way

For `C[C@@H]1CN([C@H]2CC[C@](C#N)(c3ccc(F)cc3)CC2)CC[C@]1(C(=O)O)c1ccccc1` [Levocabastine, levocabastine], the “release of IL-12p40 induced by TNF-α” value (2 mM, TNF-α 10 ng, 24 h, without PMA or differentiated with it, not influenced by VCAM-1 or fibronectin (FIG. 10)) was “effective in reducing the release”, the “release of VEGF induced by TNF-α” value (2 mM, TNF-α 10 ng, 24 h, without PMA or differentiated with it, not influenced by VCAM-1 or fibronectin (FIG. 14)) was “effective in reducing the release” and the “release of IL-12 P40 induced by TNF-α” value (2 mM, TNF-α 5, 10 and 20 ng, 12 h, without PMA or differentiated with it (FIG. 5)) was “capable of reducing the release”. The “release of VEGF induced by TNF-α” value (2 mM, TNF-α 5, 10 and 20 ng, 24 h, without PMA or differentiated with it (FIG. 6)) was “capable of reducing the release”, the “release of VEGF induced by TNF-α” value (2 mM, TNF-α 5, 10 and 20 ng, 24 h, without PMA or differentiated with it (FIG. 8)) was “capable of reducing the release” and the “release of IP-10 induced by TNF-α” value (0.1, 0.5 and 1.0 mM, 12 h, without PMA or differentiated with it (FIG. 1)) was “capable to prevent the release”. The “release of VEGF induced by TNF-α” value (0.1, 0.5 and 1.0 mM, 24 h, without PMA or differentiated with it (FIG. 4)) was “capable to prevent the release”, the “VEGF release (FIG. 14)” value (PMA differentiated and indifferentiated EoL-1 cells, after TNF-α challenge) was “able to reduce” and the “release of IL-1β” value [1] was “significantly reduce”. For the same molecule, the “release of IP-10” value [1] was “significantly reduce”, the “TNF-α-induced release of IL-8” value (overall conclusion) was “statistical significant reduction” and the “TNF-α-induced release of IL-12p40” value (overall conclusion) was “statistical significant reduction”. The “TNF-α-induced release of VEGF” value (overall conclusion) was “statistical significant reduction”, the “cytokine release, general effect” value (overall conclusion, following TNF-α stimulation) was “concentration-related reduction” and the “release of IL1-ra” value [2] was “significantly reduced”. For the same molecule, the “release of IL-1β” value [2] was “significantly reduced”, the “release of IP-10” value [2] was “significantly reduced” and the “secretion of MIP-1α” value [3] was “increasing the secretion”. The “secretion of RANTES” value [3] was “increasing the secretion”.
